# In patent publication US6914045B2, “Glycopeptide antibiotics” (Wyeth Holdings Corporation, priority 2001, dated 2005):
# Legend:
# [1] = test system: Enterococcus sp.; experiment: in vitro antibacterial evaluation, MIC by broth dilution; assay type: cell-based; details: broth dilution, 18 hours at 35° C.
# In short: (§1)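 Broth dilution per NCCLS M7-A2 in Mueller-Hinton II medium, inoculum 5×10^5 CFU/mL, antibiotic range 64-0.06 μg/mL. MIC taken as lowest concentration inhibiting growth; Gram-positive panel includes recent clinical isolates resistant to methicillin, penicillin and/or vancomycin.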
# [2] = test system: Staphylococcus sp.; experiment: as above; assay type: cell-based; details: broth dilution, 18 hours at 35° C.
# In short: as §1
# [3] = test system: Streptococcus sp.; experiment: as above; assay type: cell-based; details: broth dilution, 18 hours at 35° C.
# In short: as §1
# [4] = test system: Staphylococcus aureus-SMITH (GC 4543); experiment: acute lethal infection in mice; assay type: in vivo; details: acute lethal infection, female CD-1 mice, intraperitoneal challenge, intravenous 30 min. after infection, 7 day survival
# In short: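 Intraperitoneal challenge of female CD-1 mice with a bacterial dose lethal to untreated animals within 24-48 hr; single iv treatment 30 min later, 5 mice per dose level. Survival is scored at day 7 and pooled from three experiments to give the median effective dose.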
# [5] = test system: Escherichia coli; experiment: in vitro antibacterial evaluation, MIC by broth dilution; assay type: cell-based; details: 18 hours at 35° C.
compound,measurement,setting,value
"CC(c1ccccc1)C1NC(=O)CNC(=O)C(CO)NC(=O)C(C(O)C2CNC(=N)N2C2OC(CO)C(O)C(O)C2O)NC(=O)C(C(O)C2CNC(=N)N2)NC(=O)C(Cc2ccc(OC3OC(CO)C(OC4OC(CO)C(OCc5ccc(OCc6ccccc6)cc5)C(O)C4O)C(O)C3O)cc2)NC1=O (stereo not drawn) [Example 231a, Cyclo[glycyl-β-methylphenylalanyl-O-[4-O-[4-O-[4-(phenylmethoxy)benzyl]hexopyranosyl]-hexopyranosyl]tyrosyl-3-(2-iminoimidazolidin-4-yl)seryl-3-(3-hexopyranosyl-2-iminoimidazolidin-4-yl)serylseryl]]",MIC Enterococcus avium (GC 4558),[1],2 µg/mL
same,MIC Enterococcus faecalis (ATCC 29212),[1],2 µg/mL
same,MIC Enterococcus faecalis (GC 2242),[1],2 to 4 µg/mL
same,MIC Enterococcus faecalis (GC 2691),[1],2 µg/mL
same,MIC Enterococcus faecalis (GC 3059),[1],1 to 2 µg/mL
same,MIC Enterococcus faecalis (GC 4552),[1],4 µg/mL
same,MIC Enterococcus faecalis (GC 4553),[1],4 µg/mL
same,MIC Enterococcus faecalis (GC 4554),[1],4 µg/mL
same,MIC Enterococcus faecalis (GC 6189),[1],1 to 2 µg/mL
same,MIC Enterococcus faecium (GC 2243),[1],2 µg/mL
same,MIC Enterococcus faecium (GC 4556),[1],2 to 4 µg/mL
same,MIC Enterococcus faecium (GC 4557),[1],2 µg/mL
same,MIC Enterococcus faecalis (ATCC 29212),"[1]; inoculum 5×10^5 CFU/mL, strain ATCC 29212",2 µg/mL
same,MIC Enterococcus faecalis (GC 2242),"[1]; inoculum 5×10^5 CFU/mL, strain GC 2242",2 to 4 µg/mL
same,MIC Enterococcus faecium (GC 2243),"[1]; inoculum 5×10^5 CFU/mL, strain GC 2243",2 µg/mL
same,MIC Enterococcus faecalis (GC 2691),"[1]; inoculum 5×10^5 CFU/mL, strain GC 2691",2 µg/mL
same,MIC Enterococcus faecalis (GC 3059),"[1]; inoculum 5×10^5 CFU/mL, strain GC 3059",1 to 2 µg/mL
same,MIC Enterococcus faecalis (GC 4552),"[1]; inoculum 5×10^5 CFU/mL, strain GC 4552",4 µg/mL
same,MIC Enterococcus faecalis (GC 4553),"[1]; inoculum 5×10^5 CFU/mL, strain GC 4553",4 µg/mL
same,MIC Enterococcus faecalis (GC 4554),"[1]; inoculum 5×10^5 CFU/mL, strain GC 4554",4 µg/mL
same,MIC Enterococcus faecium (GC 4556),"[1]; inoculum 5×10^5 CFU/mL, strain GC 4556",2 to 4 µg/mL
same,MIC Enterococcus faecium (GC 4557),"[1]; inoculum 5×10^5 CFU/mL, strain GC 4557",2 µg/mL
same,MIC Enterococcus avium (GC 4558),"[1]; inoculum 5×10^5 CFU/mL, strain GC 4558",2 µg/mL
same,MIC Enterococcus faecalis (GC 6189),"[1]; inoculum 5×10^5 CFU/mL, strain GC 6189",1 to 2 µg/mL
same,MIC Coagulase Negative Staphylococcus (GC 4547),[2],1 µg/mL
same,MIC Coagulase Negative Staphylococcus (GC 4548),[2],0.12 to 0.25 µg/mL
same,MIC Coagulase Negative Staphylococcus (GC 4549),[2],>0.12 to 0.25 µg/mL
same,MIC Coagulase Negative Staphylococcus (GC 4551),[2],0.5 µg/mL
same,MIC Coagulase Negative Staphylococcus (GC 6257),[2],0.5 µg/mL
same,MIC Staphylococcus aureus (ATCC 29213),[2],1 to 2 µg/mL
same,MIC Staphylococcus aureus (GC 1131),[2],1 to 2 µg/mL
same,MIC Staphylococcus aureus (GC 3051),[2],1 µg/mL
same,MIC Staphylococcus aureus (GC 3053),[2],1 to 2 µg/mL
same,MIC Staphylococcus aureus (GC 4541),[2],1 to 2 µg/mL
same,MIC Staphylococcus aureus (GC 4542),[2],0.5 to 1 µg/mL
same,MIC Staphylococcus aureus (GC 4544),[2],2 to 4 µg/mL
same,MIC Staphylococcus aureus (GC 4545),[2],1 to 2 µg/mL
same,MIC Staphylococcus aureus-SMITH (GC 4543),[2],1 µg/mL
same,MIC Staphylococcus haemolyticus (GC 4546),[2],1 µg/mL
same,MIC Staphylococcus aureus (ATCC 29213),[2]; strain ATCC 29213,1 to 2 µg/mL
same,MIC Staphylococcus aureus (GC 1131),[2]; strain GC 1131,1 to 2 µg/mL
same,MIC Staphylococcus aureus (GC 3051),[2]; strain GC 3051,1 µg/mL
same,MIC Staphylococcus aureus (GC 3053),[2]; strain GC 3053,1 to 2 µg/mL
same,MIC Staphylococcus aureus (GC 4541),[2]; strain GC 4541,1 to 2 µg/mL
same,MIC Staphylococcus aureus (GC 4542),[2]; strain GC 4542,0.5 to 1 µg/mL
same,MIC Staphylococcus aureus-SMITH (GC 4543),[2]; strain GC 4543,1 µg/mL
same,MIC Staphylococcus aureus (GC 4544),[2]; strain GC 4544,2 to 4 µg/mL
same,MIC Staphylococcus aureus (GC 4545),[2]; strain GC 4545,1 to 2 µg/mL
same,MIC Staphylococcus haemolyticus (GC 4546),[2]; strain GC 4546,1 µg/mL
same,MIC Coagulase Negative Staphylococcus (GC 4547),[2]; strain GC 4547,1 µg/mL
same,MIC Coagulase Negative Staphylococcus (GC 4548),[2]; strain GC 4548,0.12 to 0.25 µg/mL
same,MIC Coagulase Negative Staphylococcus (GC 4549),[2]; strain GC 4549,<0.12 to 0.25 µg/mL
same,MIC Coagulase Negative Staphylococcus (GC 4551),[2]; strain GC 4551,0.5 µg/mL
same,MIC Coagulase Negative Staphylococcus (GC 6257),[2]; strain GC 6257,0.5 µg/mL
same,MIC Streptococcus agalactiae (GC 4564),[3],<0.06 µg/mL
same,MIC Streptococcus pneumoniae (ATCC 6301),[3],<0.06 µg/mL
same,MIC Streptococcus pneumoniae (GC 1894),[3],<0.06 µg/mL
same,MIC Streptococcus pneumoniae (GC 4565),[3],<0.06 µg/mL
same,MIC Streptococcus pyogenes (GC 4563),[3],<0.06 µg/mL
same,MIC Streptococcus pneumoniae (ATCC 6301),"[3]; inoculum 5×10^5 CFU/mL, strain ATCC 6301",<0.06 µg/mL
same,MIC Streptococcus pneumoniae (GC 1894),"[3]; inoculum 5×10^5 CFU/mL, strain GC 1894",<0.06 µg/mL
same,MIC Streptococcus pyogenes (GC 4563),"[3]; inoculum 5×10^5 CFU/mL, strain GC 4563",<0.06 µg/mL
same,MIC Streptococcus agalactiae (GC 4564),"[3]; inoculum 5×10^5 CFU/mL, strain GC 4564",<0.06 µg/mL
same,MIC Streptococcus pneumoniae (GC 4565),"[3]; inoculum 5×10^5 CFU/mL, strain GC 4565",<0.06 µg/mL
same,"median effective dose (ED50), Staphylococcus aureus-SMITH (GC 4543)",[4],0.06 mg/kg
same,MIC Escherichia coli (ATCC 25922),[5],32 to 64 µg/mL
same,MIC Escherichia coli (GC 4559),[5],32 µg/mL
same,MIC Escherichia coli (GC 4560),[5],0.5 to 2 µg/mL
